Assay results taken from patent US20040253665A1, “Novel peptide-producing enzyme, microbe producing the enzyme and method for dipeptide synthesis using them” (AJINOMOTO CO., INC., priority 2002, published 2004).
Where two headings read alike, the source gives them in different places. Non-standard residues stand in square brackets, D forms with d. Residues, ends and D or L forms follow the SMILES beside them. Tle = CC(C)(C)[C@H](N)C(=O)O

Experiments:
Format in all cases: biochemical
[1] = tested on: peptide-producing enzyme (Mono S fraction) from Empedobacter brevis strain FERM BP-8113; test: Enzyme substrate specificity (1)-(10), (13), (14); set-up: key: +: those peptides for which production was confirmed but which were unable to be quantified due to the absence of a standard; a trace amount
Text: (§1) Ester specificity was examined in the case of using L-amino acid ester for the carboxy component. […] The amounts of L-Ala-L-Gln produced in this reaction are shown in Table 4 (HCl represents hydrochloride in Table 4). Peptide production was examined in the case of using L-alanine methyl ester for the carboxy component and using various L-amino acids for the amine component. […] (The “+” mark indicates those peptides for which production was confirmed but which were unable to be quantified due to the absence of a standard, while “tr” indicates a trace amount.) Peptide production was examined in the case of using various types of L-amino acid methyl esters for the carboxy component and using L-glutamine for the amine component. […] Peptide production was examined in the case of using various L-amino acid methyl esters for the carboxy component and various L-amino acids for the amine component. […] (The “tr” indicates a trace amount.) Furthermore, Tween-80 was added to the reaction system to a final concentration of 0.1% in the case of using L-Trp-OMe. (The “+” mark indicates those peptides for which production was confirmed but which were unable to be quantified due to the absence of a standard.) […] (The “tr” indicates a trace amount.) Peptide production was examined using various L-amino acid amides for the carboxy component, and various L-amino acids for the amine component. […] Peptide production was examined in the case of using various L-alanine methyl esters for the carboxy component and C-protected L-amino acids for the amine component. […] Peptide production was examined in the case of using various amino acid methyl esters for the carboxy component and methylamine for the amine component. […] Peptide production was examined in the case of using β-amino acid ester for the carboxy component or β-amino acid for the amine component. […] (The “tr” indicates a trace amount.) Oligopeptide production was examined in the case of using L-amino acid ester for the carboxy component and peptide for the amine component. […] Substrate specificity was additionally assessed using the same enzyme fraction as that used in Example 5. […] (A “+” mark indicates those for which production was confirmed but which were unable to be quantified due to the absence of a standard, while “tr” indicates a trace amount). Substrate specificity with respect to oligopeptide production was assessed using the same enzyme fraction as Example 26. […] (A “+” mark indicates those for which production was confirmed but which were unable to be quantified due to the absence of a standard, while “tr” indicates a trace amount). It should be noted that hydrochlorides were used for all of the carboxy components.

[2] = tested on: peptide-producing enzyme (Mono S fraction) from Empedobacter brevis strain FERM BP-8113; test: Enzyme substrate specificity (1)-(10), (13), (14); conditions: pH 9.0, 25° C., 3 hours
Text: as §1

[3] = tested on: enzyme (SP-Sepharose HP fraction) derived from Sphingobacterium sp. strain FERM BP-8124; set-up: key to Produced peptide (mM): +: those peptides for which production was confirmed but which were unable to be quantified due to the absence of a standard; a trace amount; conditions: 0.33 units enzyme, pH 9.0, 25° C., 1.5 hours
Description: Substrate specificity was examined for enzyme derived from Sphingobacterium sp. strain FERM BP-8124 (Depositary institution: National Institute for Advanced Industrial Science and Technology, International Patent Organism Depositary, Address of depositary institution: Central. 6, 1-1-1 Higashi, Tsukuba City, Ibaraki Prefecture, Japan, International deposit date: Jul. 22, 2002). 100 μl of 100 mM borate buffer (pH 9.0) containing the various carboxy components at a final concentration of 100 mM and the various amine components at a final concentration of 150 mM shown in Tables 15-1 to 15-4, the SP-Sepharose HP fraction enzyme purified in Example 22 (addition of 0.33 units in the reaction liquid) and 10 mM EDTA were allowed to react at 25° C. for 1.5 hours. […] In addition, hydrochlorides were used for all carboxy components.
Substrate specificity with respect to oligopeptide production was examined for enzyme derived from Sphingobacterium sp. strain FERM BP-8124 (Depositary institution: National Institute for Advanced Industrial Science and Technology,.International Patent Organism Depositary, Address of depositary institution: Chuo Dai-6, 1-1 Higashi 1-Chome, Tsukuba-shi, Ibaraki-ken, Japan, International deposit date: Jul. 22, 2002). A 100 μl aliquot of 100 mM borate buffer (pH 9.0) containing the various carboxy components at a final concentration of 100 mM and the various amine components at a final concentration of 150 mM shown in Table 16, the SP-Sepharose HP fraction enzyme purified in Example 22 (addition of 0.33 units in the reaction liquid) and 10 mM EDTA were allowed to react for 1.5 hours at 25° C. Furthermore, hydrochloride salts were used for all carboxy components.

[4] = L-amino acid methyl ester hydrochloride 100 mM, 150 mM L-glutamine, pH 9.0, 25° C., 3 hours
[5] = carboxy component 100 mM, amine component 150 mM, 0.1 unit enzyme, 25° C., reaction time 3 hr
[6] = L-amino acid methyl ester hydrochloride 100 mM, 150 mM L-glutamine
[7] = Table 15-2, carboxy component 100 mM, L-Gln 150 mM
[8] = L-amino acid methyl ester hydrochloride 100 mM, L-amino acid 150 mM
[9] = Table 15-3, carboxy component 100 mM, amine component 150 mM
[10] = 100 mM L-alanine methyl ester hydrochloride, L-amino acid 150 mM
[11] = Table 15-1, carboxy component 100 mM, amine component 150 mM
[12] = L-amino acid ester 100 mM, amino acid or peptide amine component 150 mM
[13] = Table 16, oligopeptide production, carboxy component 100 mM, amine component 150 mM
[14] = amino acid methyl ester 100 mM, methylamine 150 mM
[15] = Table 15-4, amides or methylamine as components, 100 mM / 150 mM

Compound: C[C@@H](N)C(=O)N[C@H](CCC(N)=O)C(=O)O [D-Ala-D-Gln] (H-[dA]-[dQ]-OH)
- Produced peptide (mM) ([1]; L or D amino acid methyl ester hydrochloride 100 mM, L or D amino acid 150 mM, pH 9.0, 25° C., 3 hours): tr

Compound: NC(=O)CC[C@H](NC(=O)CC[C@H](N)C(=O)O)C(=O)O [γ-L-Glu-L-Gln]
- Produced peptide (mM) [1, 4]: +

Compound: NC(=O)CC[C@H](NC(=O)C[C@H](N)C(=O)O)C(=O)O [β-L-Asp-L-Gln]
- Produced peptide (mM) [1, 4]: tr

Compound: NC(=O)CCC(NC(=O)C(N)Cc1c[nH]c2ccccc12)C(=O)O [L-Trp-L-Gln] (H-Trp-Gln-OH; configuration not given here)
- Produced peptide (mM) [1, 4]: +

Compound: CC(C)(C)[C@H](N)C(=O)N[C@@H](CCC(N)=O)C(=O)O [H-t-Leu-H-Gln-OH] (H-[Tle]-Gln-OH)
- Produced peptide (mM) [1, 5]: tr

Compound: NC(=O)CC[C@H](NC(=O)[C@@H](N)Cc1ccc(F)cc1)C(=O)O [H-p-F-Phe-H-Gln-OH]
- Produced peptide (mM) [1, 5]: tr

Compound: NCCCC[C@H](N)C(=O)N[C@@H](CCC(N)=O)C(=O)O [L-Lys-L-Gln] (H-Lys-Gln-OH)
- Produced peptide (mM) [1, 4]: +

Compound: CC(C)[C@H](N)C(=O)N[C@@H](CCC(N)=O)C(=O)O [L-Val-L-Gln] (H-Val-Gln-OH)
- Produced peptide [2, 6]: 15.4 mM
- Produced peptide [3, 7]: 8.2 mM

Compound: C[C@H](NC(=O)[C@@H](N)[C@@H](C)O)C(=O)O [L-Thr-L-Ala] (H-Thr-Ala-OH)
- Produced peptide [2, 8]: 9.4 mM
- Produced peptide [3, 9]: 5.8 mM

Compound: CC(C)[C@H](NC(=O)[C@H](C)N)C(=O)O [L-Ala-L-Val] (H-Ala-Val-OH)
- Produced peptide [2, 10]: 20.8 mM
- Produced peptide [3, 11]: 10.9 mM

Compound: NC(=O)CC[C@H](NC(=O)[C@@H](N)CCCN=C(N)N)C(=O)O [L-Arg-L-Gln] (H-Arg-Gln-OH)
- Produced peptide [2, 6]: 7.1 mM
- Produced peptide [3, 7]: 17.2 mM

Compound: NC(=O)CC[C@H](NC(=O)[C@@H](N)Cc1ccc(O)cc1)C(=O)O [L-Tyr-L-Gln] (H-Tyr-Gln-OH)
- Produced peptide [2, 6]: 3.4 mM
- Produced peptide [3, 7]: 0.6 mM

Compound: C[C@H](N)C(=O)N[C@@H](C)C(=O)O [L-Ala-L-Ala] (H-Ala-Ala-OH)
- Produced peptide [2, 10]: 25.4 mM
- Produced peptide [2, 12]: 28.7 mM
- Produced peptide [3, 11]: 13.1 mM
- Produced peptide [3, 13]: 25.6 mM

Compound: CSCC[C@H](NC(=O)[C@@H](N)CO)C(=O)O [L-Ser-L-Met] (H-Ser-Met-OH)
- Produced peptide [2, 8]: 12.5 mM
- Produced peptide [3, 9]: 7.6 mM

Compound: C[C@@H](O)[C@H](N)C(=O)NCC(=O)O [L-Thr-Gly] (H-Thr-Gly-OH)
- Produced peptide [2, 8]: 9.4 mM
- Produced peptide [3, 9]: 0.4 mM

Compound: CNC(=O)C(C)N [L-Ala-methylamine]
- Produced peptide [2, 14]: 0.3 mM
- Produced peptide [3, 15]: 0.6 mM

Compound: Gly-L-Ala-L-Tyr
- Produced peptide [2, 12]: 1.7 mM
- Produced peptide [3, 13]: 0.6 mM

Compound: NC(=O)CC[C@H](NC(=O)[C@@H](N)CCC(N)=O)C(=O)O [L-Gln-L-Gln] (H-Gln-Gln-OH)
- Produced peptide [2, 6]: 0.3 mM
- Produced peptide [3, 7]: 0.1 mM

Compound: C[C@H](N)C(=O)N[C@@H](Cc1ccc(O)cc1)C(=O)O [L-Ala-L-Tyr] (H-Ala-Tyr-OH)
- Produced peptide [2, 10]: 17.6 mM
- Produced peptide [3, 11]: 11.1 mM

Compound: CNC(=O)[C@@H](N)[C@@H](C)O [L-Thr-methylamine]
- Produced peptide [2, 14]: 0.2 mM
- Produced peptide [3, 15]: 0.3 mM

Compound: CC[C@H](C)[C@H](NC(=O)[C@H](C)N)C(=O)O [L-Ala-L-Ile] (H-Ala-Ile-OH)
- Produced peptide [2, 10]: 33.9 mM
- Produced peptide [3, 11]: 24.7 mM

Compound: C[C@H](N)C(=O)N[C@H](C(=O)O)[C@@H](C)O [L-Ala-L-Thr] (H-Ala-Thr-OH)
- Produced peptide [2, 10]: 53.9 mM
- Produced peptide [3, 11]: 47.3 mM

Compound: L-Ala-L-Phe-L-Ala
- Produced peptide [2, 12]: 49.7 mM
- Produced peptide [3, 13]: 24.8 mM

Compound: C[C@H](N)C(=O)N[C@@H](CC(N)=O)C(=O)O [L-Ala-L-Asn] (H-Ala-Asn-OH)
- Produced peptide [2, 10]: 65.5 mM
- Produced peptide [3, 11]: 52.3 mM

Compound: C[C@H](N)C(=O)N[C@@H](Cc1ccccc1)C(N)=O [L-Ala-L-Phe-NH2]
- Produced peptide ([2]; L-Ala-OMe 100 mM, L-amino acid amide 150 mM as amine component): 12.2 mM
- Produced peptide [3, 15]: 27.1 mM

Compound: C[C@H](N)C(=O)N[C@@H](CC(=O)O)C(=O)O [L-Ala-L-Asp] (H-Ala-Asp-OH)
- Produced peptide [2, 10]: 2.1 mM
- Produced peptide [3, 11]: 2.3 mM

Compound: NC(=O)CC[C@H](NC(=O)[C@@H](N)CO)C(=O)O [L-Ser-L-Gln] (H-Ser-Gln-OH)
- Produced peptide [2, 6]: 24.0 mM
- Produced peptide [3, 7]: 12.9 mM

Compound: NC(=O)CC[C@H](NC(=O)[C@@H](N)Cc1ccccc1)C(=O)O [L-Phe-L-Gln]
- Produced peptide ([2]; L-amino acid amide hydrochloride 100 mM as carboxy component, L-amino acid 150 mM): 0.2 mM
- Produced peptide [2, 6]: 0.9 mM
- Produced peptide [3, 7]: 0.8 mM

Compound: NC(N)=NCCC[C@H](N)C(=O)N[C@@H](CO)C(=O)O [L-Arg-L-Ser] (H-Arg-Ser-OH)
- Produced peptide [2, 8]: 3.6 mM
- Produced peptide [3, 9]: 2.2 mM

Compound: L-Ala-Gly-L-Ala
- Produced peptide [2, 12]: 25.9 mM
- Produced peptide [3, 13]: 35.1 mM

Compound: L-Ala-Gly-Gly
- Produced peptide [2, 12]: 41.7 mM
- Produced peptide [3, 13]: 33.7 mM

Compound: C[C@H](N)C(=O)N[C@H](CO)C(=O)O [L-Ala-D-Ser] (H-Ala-[dS]-OH)
- Produced peptide ([2]; L or D amino acid methyl ester hydrochloride 100 mM, L or D amino acid 150 mM): 5.4 mM
- Produced peptide [3, 11]: 3.3 mM

Compound: NC(N)=NCCC[C@H](N)C(=O)N[C@@H](Cc1ccccc1)C(=O)O [L-Arg-L-Phe]
- Produced peptide [2, 8]: 1.9 mM
- Produced peptide (mM) [3, 9]: tr
